The values that follow are results of earlier work, collected in patent publication US20110105600A1, “SYNERGISTIC COMPOSITION OF (-)-HYDROXYCITRIC ACID WITH MONOTERPENE AND A METHOD TO ENHANCE SATIETY” (Glykon Technologies Group, LLC, priority 2009, published 2011).

For data set [1] the following is noted: single large oral dose or two divided oral doses; animals fed a high-sugar diet.
The conditions of data set [2]: end of eight weeks; 2,800 mg/HCA per day in capsules.
For data set [3], the system named is rat.
Experiment in data set [4]: not given
This is another data set of the same source.

For data set [5] the following is noted: 40 oz of Mediterranean-style lemonade containing 596 mg d-limonene.
For data set [6] the following is noted: humans; dosage related to total body surface area.

Consider `O=C(O)CC(O)(C(=O)O)C(O)C(=O)O` (single isomer, unassigned; (-)) [HCA, (−)-hydroxycitric acid], for which, in data set [1], the “reduction in food consumption” value is no less than 10%. Moreover, the “decrease in food intake” value (900 mg HCA dissolved in 100 ml tomato juice, 2-week period) is given as 15-30%. For the same compound, the reduction in appetite (900 mg/day, two weeks) is 15-30%. Besides, the weight loss result (2-week period) is listed as “no significant weight loss”. Further, the decrease in appetite result in data set [2] was “approximately 15.6%”.

`CC(C)=CCC/C(C)=C\CO` [nerol]: the “acute oral LD50” value in data set [3] was 4,500 mg/kg body weight.

Take `CC(C)=CCC/C(C)=C/CO` [geraniol]: the “acute oral LD50” value in data set [3] is 3,600 mg/kg body weight.

Turning to `C=C(C)[C@H]1CC=C(C)CC1` [d-limonene], the “duration of slight fatigue and eructation” value in data set [4] (oral dose of 100 mg/kg) is on record as “four”. Also, the “duration of mild satiety” value in data set [4] (oral dose of 100 mg/kg (bolus of 7 grams for a 70 kg human)) was 10 h. Further, in data set [5], the “time to maximal blood concentrations of perillyl alcohol” value is “one”.

`C=C(C)[C@@H]1CC=C(CO)CC1` [perillyl alcohol]: the maximum tolerated dose in data set [6] was 8400 mg/m^2 per day.
